The values below come from ChEMBL document CHEMBL1134014, “Synthesis and biological evaluation of a sialyl Lewis X mimic with significantly improved E-selectin inhibition” (Bioorg Med Chem Lett, 2001).

Experiment [1] has as its target T1, E-selectin (Homo sapiens) (UniProt P16581).
T1 sequence (whole entry): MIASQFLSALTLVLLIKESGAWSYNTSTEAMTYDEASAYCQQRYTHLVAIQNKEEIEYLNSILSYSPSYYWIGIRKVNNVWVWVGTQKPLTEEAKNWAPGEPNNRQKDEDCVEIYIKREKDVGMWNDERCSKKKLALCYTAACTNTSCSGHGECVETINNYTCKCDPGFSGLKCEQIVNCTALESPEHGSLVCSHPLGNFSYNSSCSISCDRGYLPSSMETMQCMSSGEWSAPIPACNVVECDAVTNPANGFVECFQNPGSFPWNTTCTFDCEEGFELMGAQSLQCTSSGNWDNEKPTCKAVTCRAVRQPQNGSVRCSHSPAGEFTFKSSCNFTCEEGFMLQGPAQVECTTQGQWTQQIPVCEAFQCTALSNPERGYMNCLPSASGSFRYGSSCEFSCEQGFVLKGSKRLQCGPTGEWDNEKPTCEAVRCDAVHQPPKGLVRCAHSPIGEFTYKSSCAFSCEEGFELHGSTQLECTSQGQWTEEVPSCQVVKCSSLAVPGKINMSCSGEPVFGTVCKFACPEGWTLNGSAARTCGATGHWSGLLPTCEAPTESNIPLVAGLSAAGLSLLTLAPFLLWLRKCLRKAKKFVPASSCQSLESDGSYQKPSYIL
The experiment is described as follows: Relative inhibitory concentration against Selectin E to that of sLex in a static cell free ligand binding assay.

For a further experiment, the target named is T2, E-selectin (Homo sapiens, UniProt P16581).
T2 sequence (P16581 whole entry): T1 sequence (whole entry)
The experiment is described as follows: Inhibitory concentration against Selectin E in a static cell free ligand binding assay under equilibrium conditions.

Experiment [2] has as its target T1, E-selectin (Homo sapiens). As to conditions: 10uM.
Description: Percent inhibition of Selectin E by the compound at a dose of 10uM
In experiment [3] the target is T1, E-selectin (Homo sapiens). To be noted: 200uM.
Description: Percent inhibition of Selectin E by the compound at a dose of 200uM
Experiment [4] concerns the target T1, E-selectin (Homo sapiens). To be noted: 50uM.
Description: Percent inhibition of Selectin E by the compound at a dose of 50uM

Consider `C[C@@H]1O[C@@H](O[C@@H]2[C@H](CO)OCC[C@H]2O[C@@H]2O[C@@H](CO)[C@H](O)[C@H](OC(CC3CCCCC3)C(=O)O)[C@@H]2O)[C@@H](O)[C@@H](O)[C@@H]1O` (single isomer, unassigned), for which, in experiment [1], the Relative IC50 is 0.031.

In turn, `COC(=O)CCCCCCCCO[C@@H]1O[C@@H](CO)[C@@H](O[C@@H]2O[C@@H](CO)[C@H](O)[C@H](O[C@@H](CC3CCCCC3)C(=O)O)[C@@H]2O)[C@H](O[C@@H]2O[C@@H](C)[C@@H](O)[C@H](O)[C@@H]2O)[C@@H]1NC(=O)c1ccc(OC)c(OC)c1` gave a Relative IC50 in experiment [1] of 0.03. Moreover, at E-selectin, the IC50 (usually the midpoint of a concentration-inhibition curve) amounted to 1500 µM. Moreover, the inhibition – broadly, the relative decrease from the control value, in per cent – was found to be 54% in experiment [2], 97% in experiment [3] and 93% in experiment [4].

In the case of `COC(=O)CCCCCCCCO[C@@H]1O[C@@H](CO)[C@@H](O[C@@H]2O[C@@H](CO)[C@H](O)[C@H](O[C@]3(C(=O)O)C[C@@H](O)[C@@H](NC(C)=O)[C@H]([C@@H](O)[C@H](O)CO)O3)[C@@H]2O)[C@H](O[C@@H]2O[C@@H](C)[C@@H](O)[C@H](O)[C@@H]2O)[C@@H]1NC(C)=O`, in experiment [1], the Relative IC50 amounted to 1. Same read-out and setting: with `COC(=O)CCCCCCCCOC1O[C@@H](O)[C@@H](O[C@@H]2O[C@@H](CO)[C@H](O)[C@H](O[C@]3(C(=O)O)C[C@@H](O)[C@@H](NC(C)=O)[C@H]([C@@H](O)[C@H](O)CO)O3)[C@@H]2O)[C@H](O[C@@H]2O[C@@H](C)[C@@H](O)[C@H](O)[C@@H]2O)[C@@H]1NC(=O)c1ccc(OC)c(OC)c1` (some centres undefined) the figure was 0.164. Take `C[C@@H]1O[C@@H](O[C@@H]2CCCC[C@H]2O[C@@H]2O[C@@H](CO)[C@H](O)[C@H](OC(CC3CCCCC3)C(=O)O)[C@@H]2O)[C@@H](O)[C@@H](O)[C@@H]1O` (single isomer, unassigned): in experiment [1], the Relative IC50 was 0.115.
